For 22 molecules, IC50 results are on record in ChEMBL document CHEMBL5725671, “Heterocyclic compounds useful as PDK1 inhibitors” (2018).

The target in this assay is T1, 3-phosphoinositide-dependent protein kinase 1 (Homo sapiens, UniProt O15530).
T1 sequence (O15530 whole entry): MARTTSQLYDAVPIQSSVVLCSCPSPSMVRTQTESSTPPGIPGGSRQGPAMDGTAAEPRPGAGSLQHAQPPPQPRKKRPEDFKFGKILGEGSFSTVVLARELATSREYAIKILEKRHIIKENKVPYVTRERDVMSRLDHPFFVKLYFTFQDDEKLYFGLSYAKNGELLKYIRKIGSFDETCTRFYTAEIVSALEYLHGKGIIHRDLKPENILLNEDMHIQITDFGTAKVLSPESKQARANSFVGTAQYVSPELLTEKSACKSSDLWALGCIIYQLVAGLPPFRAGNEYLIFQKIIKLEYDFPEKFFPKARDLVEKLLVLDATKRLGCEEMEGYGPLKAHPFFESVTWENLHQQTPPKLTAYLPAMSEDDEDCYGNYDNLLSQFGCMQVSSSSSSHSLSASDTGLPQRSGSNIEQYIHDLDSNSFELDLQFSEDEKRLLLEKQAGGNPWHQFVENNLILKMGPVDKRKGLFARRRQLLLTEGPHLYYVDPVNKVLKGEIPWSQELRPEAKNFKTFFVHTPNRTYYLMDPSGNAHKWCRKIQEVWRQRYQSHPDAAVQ
The assay is described as follows: PDK1 kinase assay: PDK1 (amino acids 51-359) and AKT2 (amino acids 140-467 fused to PIFtide, amino acids […]) were expressed as N-terminally tagged GST fusion proteins in insect cells and purified to homogeneity. Enzyme activity was determined in a coupled PDK1/AKT/FAM-crosstide assay and phosphorylation of FAM-crosstide was determined by standard IMAP protocol (Molecular Devices). For inhibition studies, compounds were titrated 4-fold in DMSO and diluted 40-fold into assay buffer (10 mM Tris HCl pH7.2; 10 mM MgCl2; 0.01% Triton X-100; 1 mM DTT) containing PDK1, AKT2, and FAM-crosstide (final concentrations: 0.75 nM PDK1, 10 nM unphosphorylated AKT2, and 100 nM crosstide substrate). The kinase reaction was initiated by adding ATP to a final concentration of 40 μM of PDK1 and incubated at 25° C. for 30 min. To detect assay product, the kinase reaction was combined with Progressive Binding Solution (1:600 Progressive Binding Reagent, 50% Buffer A, 50% Buffer B, Molecular Devices) in a 1:3 ratio. The mixture was incubated for 2 hours at 25° C. and the plate was scanned on an Analyst AD with excitation at 485 nm and emission at 530 nm. The fluorescence polarization value P is defined by the equation below. The value mP is generated by multiplying the P value for each reaction well by a factor of 1000. The value ΔmP for each well is the mP value for that well minus the mP value for the average negative control. P=(Fpar−Fperp)/(Fpar+Fperp) Eq.:Where par is fluorescence intensity parallel to the excitation plane; and perp is fluorescence intensity perpendicular to the excitation plane. ΔmP values were plotted as a function of compound concentration and the data were analyzed with a 4-parameter fit using GraphPad Prism software. Type of assay: biochemical. For orientation: In fluorescence polarisation assays a small probe gives low polarisation when free and higher when bound to something large.

pIC50: −log10 of the molar value. Bounds are passed on as bounds.

As to `C[C@H](NC(=O)c1cc(C#N)cnc1NCc1ccc(-c2cnc3[nH]c(=O)[nH]c3c2)c(F)c1)c1ccc(F)cc1`, the negative-log IC50 (pIC50) (usually the negative decadic logarithm of the IC50, by convention in mol/L) was over 7.00.

Regarding `C[C@H](NC(=O)c1cc(C#N)cnc1NCc1ccc(-c2cnc3[nH]c(=O)n(C)c3c2)cc1)c1ccc(F)cc1`, the pIC50 was over 7.00.

In the case of `C[C@H](NC(=O)c1nc(C(F)(F)F)cnc1NCc1ccc(-c2cnc3[nH]nc(N)c3c2)cc1)c1ccc(F)c(F)c1`, the negative logarithm of the IC50 (pIC50) was over 7.00.

Regarding `N#Cc1cnc(NCc2ccc(-c3cnc4[nH]ncc4c3)cc2)c(C(=O)NCc2ccc(F)c(F)c2)c1`, the negative logarithm of the IC50 (pIC50) was over 7.00.

As to `C[C@H](NC(=O)c1cc(C#N)cnc1NCC#Cc1ccc2nc(N)ncc2c1)c1ccc(F)cc1`, the pIC50 was over 7.00.

For `C[C@H](NC(=O)c1nc(C(F)(F)F)cnc1N[C@H](C)c1ccc(-c2cnc3[nH]nc(N)c3c2)cc1)c1ccc(F)c(F)c1`, the pIC50 is over 7.00.

On to `COCCNC(=O)c1cccnc1NCc1ccc(-c2ccc3ncnc(N)c3c2)s1`, for which the pIC50 is under 5.30.

Regarding `C[C@H](NC(=O)c1cc(C#N)cnc1NCc1ccc(-c2cnc3[nH]nc(N)c3c2)cc1Cl)c1ccc(F)cc1`, the pIC50 is over 7.00.

For the molecule `N#Cc1cc(F)ccc1NC(=O)c1cc(C(F)(F)F)cnc1NCc1ccc(-c2cnc3[nH]nc(N)c3c2)cc1`, the negative-log IC50 (pIC50) is over 7.00.

As to `C[C@H](NC(=O)c1cc(C#N)cnc1NCc1ccc(-c2cnc3[nH]nc(N)c3c2)cc1F)c1ccc(F)cc1`, the negative logarithm of the IC50 (pIC50) was over 7.00.

As for `C[C@H](NC(=O)c1cccnc1NCc1ccc(-c2cc3c(cn2)ncn3C)s1)c1ccc(F)cc1`, the pIC50 is under 5.30.

Regarding `Nc1ncc(-c2ccc(CNc3ncc(C(F)(F)F)cc3C(=O)Nc3ccc(F)cc3)cc2)nc1CO`, the negative-log IC50 (pIC50) was over 7.00.

For `Nc1ncnc2ccc(-c3ccc(CNc4ncccc4C(=O)NCc4cncc(F)c4)s3)cc12`, the pIC50 is over 7.00.

On to `C[C@H](NC(=O)c1nc(C#N)cnc1N[C@H](C)c1ccc(-c2cnc3[nH]nc(N)c3c2)nc1)c1ccc(F)c(F)c1`, for which the pIC50 is over 7.00.

As for `C[C@H](NC(=O)c1nc(C#N)cnc1NCC#Cc1ccc2nc(N)ncc2c1)c1ccc(F)c(F)c1`, the pIC50 was over 7.00.

As for `C[C@H](NC(=O)c1cc(C#N)cnc1N[C@H](C)c1ccc(-c2cnc3[nH]nc(N)c3c2)nc1)c1ccc(F)cc1`, the pIC50 was over 7.00.

`C[C@H](NC(=O)c1cccnc1NCc1ccc(-c2ccc3ncnc(NCCO)c3c2)s1)c1ccc(F)cc1`: the negative logarithm of the IC50 (pIC50) is over 7.00.

`Nc1ncnc2ccc(-c3ccc(CNc4ncc(Br)cc4S(=O)(=O)NCc4ccc(F)c(F)c4)s3)cc12`: the pIC50 is under 5.30.

For the molecule `C[C@H](NC(=O)c1nc(C#N)cnc1NCc1ccc(-c2cnc(N)c(CO)n2)cc1)c1ccc(F)c(F)c1`, the negative-log IC50 (pIC50) was over 7.00.

For the molecule `CCc1cnc(NCc2ccc(-c3ccc4ncnc(N)c4c3)s2)c(C(=O)NCc2ccc(F)c(F)c2)c1`, the pIC50 is over 7.00.

Turning to `Cc1nc(N)cnc1-c1ccc(CNc2ncc(C#N)cc2C(=O)N[C@@H](C)c2ccc(F)cc2)cc1`, the negative logarithm of the IC50 (pIC50) is under 5.30.

For `Cc1ccc(NC(=O)c2cccnc2NCc2ccc(-c3ccc4ncnc(N)c4c3)s2)cc1F`, the pIC50 is under 5.30.
